Measured values from PubChem BioAssay AID248 (DTP/NCI, 2004).
Values joined by “and” are separate entries in the source; they are usually repeats but may differ in a detail not shown here. Equal values may be shown once. Toxic doses and inconclusive results are not listed. No stated cut-off is given here; in the data, active means T/C of 150% or more; inactive means T/C below 125%.

Tested on: L1210 leukemia ip in BDF1 mice, survival T/C
Experiment: NCI In Vivo Anticancer Drug Screen. Data for tumor model L1210 Leukemia (intraperitoneal) in B6D2F1 (BDF1) mice
Conditions: endpoint: mean survival time, higher = longer survival
Summary of the method: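 Ratio derived from survival: compound-dosed mice over vehicle-dosed mice, all bearing a transplantable tumor.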

[1] = dose: 100.0 mg/kg/injection, schedule: Q01DX001 (ip), vehicle: carboxymethylcellulose (CMC)
[2] = dose: 200.0 mg/kg/injection, schedule: Q01DX001 (ip), vehicle: carboxymethylcellulose (CMC)
[3] = dose: 25.0 mg/kg/injection, schedule: Q04DX003 (ip), vehicle: Klucel (hydroxypropylcellulose) (HPC)
[4] = dose: 50.0 mg/kg/injection, schedule: Q04DX003 (ip), vehicle: Klucel (hydroxypropylcellulose) (HPC)
[5] = dose: 100.0 mg/kg/injection, schedule: Q04DX003 (ip), vehicle: Klucel (hydroxypropylcellulose) (HPC)
[6] = dose: 75.0 mg/kg/injection, schedule: Q01DX001 (ip), vehicle: saline
[7] = dose: 50.0 mg/kg/injection, schedule: Q01DX001 (ip), vehicle: Klucel (hydroxypropylcellulose) (HPC)
[8] = dose: 100.0 mg/kg/injection, schedule: Q04DX002 (ip), vehicle: Klucel (hydroxypropylcellulose) (HPC)
[9] = dose: 200.0 mg/kg/injection, schedule: Q04DX002 (ip), vehicle: Klucel (hydroxypropylcellulose) (HPC)
[10] = dose: 400.0 mg/kg/injection, schedule: Q04DX002 (ip), vehicle: Klucel (hydroxypropylcellulose) (HPC)
[11] = dose: 100.0 mg/kg/injection, schedule: Q01DX009 (ip), vehicle: saline
[12] = dose: 100.0 mg/kg/injection, schedule: Q04DX003 (ip), vehicle: saline
[13] = dose: 50.0 mg/kg/injection, schedule: Q01DX009 (ip), vehicle: Klucel (hydroxypropylcellulose) (HPC)
[14] = dose: 100.0 mg/kg/injection, schedule: Q01DX009 (ip), vehicle: Klucel (hydroxypropylcellulose) (HPC)
[15] = dose: 200.0 mg/kg/injection, schedule: Q01DX009 (ip), vehicle: Klucel (hydroxypropylcellulose) (HPC)
[16] = dose: 400.0 mg/kg/injection, schedule: Q01DX001 (ip), vehicle: carboxymethylcellulose (CMC)
[17] = dose: 100.0 mg/kg/injection, schedule: Q01DX001 (ip), vehicle: saline with Tween-80
[18] = dose: 200.0 mg/kg/injection, schedule: Q01DX001 (ip), vehicle: saline with Tween-80
[19] = dose: 400.0 mg/kg/injection, schedule: Q01DX001 (ip), vehicle: saline with Tween-80
[20] = dose: 200.0 mg/kg/injection, schedule: Q04DX003 (ip), vehicle: saline
[21] = dose: 400.0 mg/kg/injection, schedule: Q04DX003 (ip), vehicle: saline

Measured: T/C

O=[N+]([O-])c1cc(/C=N\N=C\c2ccco2)ccc1Cl
inactive: dose: 5.0 mg/kg/injection, schedule: Q01DX001 (ip), vehicle: saline 100 % of control | dose: 10.0 mg/kg/injection, schedule: Q01DX001 (ip), vehicle: saline 98 % of control | dose: 20.0 mg/kg/injection, schedule: Q01DX001 (ip), vehicle: saline 96 % of control | dose: 40.0 mg/kg/injection, schedule: Q01DX001 (ip), vehicle: saline 88 % of control | dose: 80.0 mg/kg/injection, schedule: Q01DX001 (ip), vehicle: saline 88 % of control

CCN(CC)CCOC(=O)C1c2ccccc2Oc2ccccc21
inactive: [1] 102 % of control | [2] 94 % of control

Cc1ccc(NC(=O)Nc2onc(C)c2C)c([N+](=O)[O-])c1
inactive: [3] 93 % of control | [4] 93 % of control | [5] 93 % of control and 88 % of control

O=C(OC(CCN1CCCCC1)c1ccccc1)c1ccccc1 (configuration not stated)
inactive: dose: 100.0 mg/kg/injection, schedule: Q04DX003 (ip), vehicle: saline with Tween-80 100 % of control

Cc1c(CCO)sc[n+]1Cc1cccc([N+](=O)[O-])c1
inactive: dose: 100.0 mg/kg/injection, schedule: Q01DX001 (ip), vehicle: saline 98 % of control

COc1ccc2c(c1O)C13C=C(C)C(=O)CC1C(C2)N(C)CC3 (configuration not stated)
inactive: [6] 106 % of control

COc1cccc(OC#N)c1OC
inactive: dose: 12.5 mg/kg/injection, schedule: Q01DX001 (ip), vehicle: Klucel (hydroxypropylcellulose) (HPC) 93 % of control | dose: 12.5 mg/kg/injection, schedule: Q01DX009 (ip), vehicle: Klucel (hydroxypropylcellulose) (HPC) 95 % of control | dose: 12.5 mg/kg/injection, schedule: Q04DX003 (ip), vehicle: Klucel (hydroxypropylcellulose) (HPC) 96 % of control | dose: 25.0 mg/kg/injection, schedule: Q01DX001 (ip), vehicle: Klucel (hydroxypropylcellulose) (HPC) 98 % of control | dose: 25.0 mg/kg/injection, schedule: Q01DX009 (ip), vehicle: Klucel (hydroxypropylcellulose) (HPC) 97 % of control | [3] 104 % of control | [7] 93 % of control | [4] 94 % of control

O=C(CC1C(=O)Nc2ccccc21)c1ccccc1 (configuration not stated)
inactive: [8] 91 % of control | [9] 105 % of control | [10] 91 % of control

CCOC(=O)/C(C#N)=N\O
inactive: dose: 25.0 mg/kg/injection, schedule: Q04DX003 (ip), vehicle: saline 98 % of control | dose: 50.0 mg/kg/injection, schedule: Q01DX009 (ip), vehicle: saline 111 % of control | dose: 50.0 mg/kg/injection, schedule: Q04DX003 (ip), vehicle: saline 111 % of control | [11] 90 % of control | [12] 104 % of control and 88 % of control

CC(C)CCCC(C)C1CCC2C3CCC4=C/C(=N/NC(N)=O)CCC4(C)C3CCC12C (configuration not stated)
inactive: [13] 97 % of control | [14] 90 % of control | [15] 88 % of control

CN(C)c1ccccc1C(=O)N/N=C/c1ccc(F)cc1
inactive: [14] 95 % of control | [5] 99 % of control | [15] 93 % of control | dose: 200.0 mg/kg/injection, schedule: Q04DX003 (ip), vehicle: Klucel (hydroxypropylcellulose) (HPC) 99 % of control | dose: 400.0 mg/kg/injection, schedule: Q01DX009 (ip), vehicle: Klucel (hydroxypropylcellulose) (HPC) 96 % of control | dose: 400.0 mg/kg/injection, schedule: Q04DX003 (ip), vehicle: Klucel (hydroxypropylcellulose) (HPC) 93 % of control

CCCCN1CCCC(OC(=O)N(C)C)C1 (configuration not stated)
inactive: dose: 25.0 mg/kg/injection, schedule: Q04DX002 (ip), vehicle: saline 105 % of control | dose: 50.0 mg/kg/injection, schedule: Q04DX002 (ip), vehicle: saline 102 % of control | dose: 100.0 mg/kg/injection, schedule: Q04DX002 (ip), vehicle: saline 97 % of control

CCCc1nc2ccccc2c(=O)n1/N=C/c1ccc(Cl)cc1Cl
inactive: [8] 96 % of control | [9] 92 % of control | [10] 103 % of control

Cc1cc(C)n(/N=C/c2ccc([N+](=O)[O-])o2)c(=O)c1C#N
inactive: [1] 88 % of control | [2] 91 % of control | [16] 88 % of control

COC(=O)c1cc2ccccc2cc1OCC(=O)NCc1ccc(Cl)cc1
inactive: [7] 105 % of control | dose: 100.0 mg/kg/injection, schedule: Q01DX001 (ip), vehicle: Klucel (hydroxypropylcellulose) (HPC) 94 % of control | dose: 200.0 mg/kg/injection, schedule: Q01DX001 (ip), vehicle: Klucel (hydroxypropylcellulose) (HPC) 97 % of control

CC[N+](C)(C)C(C)(C)C
inactive: dose: 18.75 mg/kg/injection, schedule: Q01DX001 (ip), vehicle: saline 112 % of control | dose: 37.5 mg/kg/injection, schedule: Q01DX001 (ip), vehicle: saline 105 % of control | [6] 105 % of control

COc1ccc(C(C)(C)CC(=O)O)cc1OC
inactive: [17] 92 % of control | [18] 92 % of control | [19] 95 % of control

CCOCc1nc(N)nc(N)c1-c1ccc(Cl)c(Cl)c1
inactive: [1] 97 % of control | [2] 89 % of control | [16] 108 % of control

CC(C)(C)C1SCC(=NNc2ccc([N+](=O)[O-])cc2[N+](=O)[O-])CS1 (configuration not stated)
inactive: dose: 12.5 mg/kg/injection, schedule: Q04DX002 (ip), vehicle: gum acacia 95 % of control | dose: 25.0 mg/kg/injection, schedule: Q04DX002 (ip), vehicle: gum acacia 98 % of control | dose: 50.0 mg/kg/injection, schedule: Q04DX002 (ip), vehicle: gum acacia 95 % of control

CCC1(c2ccccc2)C(=O)NC(=S)N(C)C1=O (configuration not stated)
inactive: dose: 75.0 mg/kg/injection, schedule: Q01DX001 (ip), vehicle: other 95 % of control | dose: 150.0 mg/kg/injection, schedule: Q01DX001 (ip), vehicle: other 96 % of control

Cc1c(C(C)c2[nH]c3ccccc3c2C)[nH]c2ccccc12
inactive: dose: 50.0 mg/kg/injection, schedule: Q01DX001 (ip), vehicle: other 98 % of control | dose: 100.0 mg/kg/injection, schedule: Q01DX001 (ip), vehicle: other 102 % of control | dose: 200.0 mg/kg/injection, schedule: Q01DX001 (ip), vehicle: other 91 % of control | dose: 400.0 mg/kg/injection, schedule: Q01DX001 (ip), vehicle: other 93 % of control

CC(=O)OC1CCC2(C)C(=CCC3C2CCC2(C)C3CC3OC4(CCC(C)CN4C(C)=O)C(C)C32)C1 (configuration not stated)
inactive: [17] 98 % of control | [18] 95 % of control | [19] 95 % of control

O=C(NCc1cccc2ccccc12)Nc1ccccc1Cl
inactive: [8] 100 % of control | [9] 104 % of control | [10] 96 % of control

CCOC(=O)CCCC1(C)C(C#N)C(=O)NC(=O)C1C#N (configuration not stated)
inactive: [11] 96 % of control | [12] 112 % of control | dose: 200.0 mg/kg/injection, schedule: Q01DX009 (ip), vehicle: saline 98 % of control | [20] 102 % of control | dose: 400.0 mg/kg/injection, schedule: Q01DX009 (ip), vehicle: saline 90 % of control | [21] 94 % of control

CNC(=O)Nc1ccc(Cl)cn1
inactive: dose: 25.0 mg/kg/injection, schedule: Q01DX009 (ip), vehicle: saline with Tween-80 100 % of control | dose: 50.0 mg/kg/injection, schedule: Q01DX009 (ip), vehicle: saline with Tween-80 97 % of control | dose: 100.0 mg/kg/injection, schedule: Q01DX009 (ip), vehicle: saline with Tween-80 98 % of control and 103 % of control

O=C(/C=C(\C(=O)c1ccccc1)c1ccccc1)c1ccc(Cl)cc1
inactive: [13] 103 % of control | dose: 75.0 mg/kg/injection, schedule: Q01DX001 (ip), vehicle: Klucel (hydroxypropylcellulose) (HPC) 100 % of control | [14] 92 % of control | dose: 150.0 mg/kg/injection, schedule: Q01DX001 (ip), vehicle: Klucel (hydroxypropylcellulose) (HPC) 95 % of control | [15] 94 % of control | dose: 300.0 mg/kg/injection, schedule: Q01DX001 (ip), vehicle: Klucel (hydroxypropylcellulose) (HPC) 108 % of control

O=[N+]([O-])c1ccc(C=Nc2ccc([N+](=O)[O-])cc2)cc1
inactive: [12] 90 % of control | [20] 86 % of control | [21] 93 % of control
